Results reported in US8618289B2 (Ambit Biosciences Corporation, priority 2008, dated 2013).
Where two headings read alike, the source gives them in different places.

Legend:
RAF kinases [1] = target: RAF kinases (Homo sapiens, UniProt P15056); experiment: biochemical
RAF kinases [2] = target: T1, RAF kinases (Homo sapiens, UniProt P04049); experiment: biochemical
RAF kinases [3] = target: T2, RAF kinases (Homo sapiens, UniProt P15056, V600E); experiment: biochemical
[4] = system: MEK1 phosphorylation in the A375 human melanoma cell line; experiment: cells; settings: A-375, read-out: pMEK IC50
A375 cells = experiment: cells; settings: Homo sapiens, A-375, read-out: A375 Viability EC50
RAF kinases [5] = target: T1, RAF kinases; settings: read-out: RAF1 Kd; RAF1
RAF kinases [6] = target: T2, RAF kinases; settings: read-out: BRAF V600E Kd; BRAF V600E

Sequence of RAF kinases (Homo sapiens, UniProt P15056) (P15056 whole entry): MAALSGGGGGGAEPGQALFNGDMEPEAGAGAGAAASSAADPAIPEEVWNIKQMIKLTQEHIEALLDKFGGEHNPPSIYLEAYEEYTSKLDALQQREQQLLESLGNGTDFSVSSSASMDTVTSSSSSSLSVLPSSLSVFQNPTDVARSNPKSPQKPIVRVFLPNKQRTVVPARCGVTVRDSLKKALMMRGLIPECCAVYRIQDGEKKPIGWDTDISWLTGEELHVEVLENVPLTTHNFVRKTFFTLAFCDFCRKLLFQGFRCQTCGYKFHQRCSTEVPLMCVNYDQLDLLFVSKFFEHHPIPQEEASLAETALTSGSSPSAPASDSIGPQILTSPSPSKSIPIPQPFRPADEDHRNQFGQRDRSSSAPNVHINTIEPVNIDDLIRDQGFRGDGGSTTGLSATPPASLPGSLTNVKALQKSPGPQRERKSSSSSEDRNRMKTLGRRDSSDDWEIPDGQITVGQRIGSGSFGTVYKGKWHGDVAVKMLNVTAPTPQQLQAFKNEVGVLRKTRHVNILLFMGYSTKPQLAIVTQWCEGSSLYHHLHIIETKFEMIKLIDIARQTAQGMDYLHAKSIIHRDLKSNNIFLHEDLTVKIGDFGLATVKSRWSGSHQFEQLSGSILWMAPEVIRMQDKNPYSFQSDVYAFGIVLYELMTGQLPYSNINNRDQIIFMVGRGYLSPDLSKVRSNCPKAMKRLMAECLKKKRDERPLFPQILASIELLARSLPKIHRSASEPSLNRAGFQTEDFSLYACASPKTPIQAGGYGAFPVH
T1 sequence (P04049 whole entry): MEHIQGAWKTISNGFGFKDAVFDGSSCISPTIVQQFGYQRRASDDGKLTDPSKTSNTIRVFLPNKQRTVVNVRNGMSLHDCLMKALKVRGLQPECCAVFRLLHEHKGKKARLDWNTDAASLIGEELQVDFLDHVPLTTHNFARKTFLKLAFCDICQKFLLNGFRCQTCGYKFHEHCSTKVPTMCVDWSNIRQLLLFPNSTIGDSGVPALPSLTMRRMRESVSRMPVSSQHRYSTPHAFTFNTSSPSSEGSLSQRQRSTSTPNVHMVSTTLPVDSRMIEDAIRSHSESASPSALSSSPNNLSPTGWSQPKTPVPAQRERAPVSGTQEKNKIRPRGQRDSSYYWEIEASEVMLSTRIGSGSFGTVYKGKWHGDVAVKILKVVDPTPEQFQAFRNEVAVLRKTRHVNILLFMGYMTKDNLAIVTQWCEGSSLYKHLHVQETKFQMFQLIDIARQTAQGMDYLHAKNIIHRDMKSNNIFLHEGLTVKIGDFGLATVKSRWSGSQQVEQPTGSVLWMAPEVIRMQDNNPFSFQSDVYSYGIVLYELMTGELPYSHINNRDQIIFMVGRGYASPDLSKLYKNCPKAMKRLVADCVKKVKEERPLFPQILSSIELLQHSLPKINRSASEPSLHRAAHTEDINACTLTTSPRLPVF
T2 sequence (P15056 whole entry V600E): as the sequence (P15056 whole entry) above, with V600E counted along it

Structure (SMILES)	Kd (RAF kinases [1]) [nM]	Kd (RAF kinases [2]) [nM]	Kd (RAF kinases [3]) [nM]	IC50 [4] [nM]	EC50 (A375 cells) [nM]	Kd (RAF kinases [5]) [nM]	Kd (RAF kinases [6]) [nM]
CCOC(C)(C)c1cc(NC(=O)Nc2cccc(Sc3ncnc4cc(OC)c(OC)cc34)c2)n(-c2ccccc2)n1 [Ex 197, 1-[3-(6,7-dimethoxyquinazolin-4-ylthio)phenyl]-3-[3-(2-ethoxypropan-2-yl)-1-phenyl-1H-pyrazol-5-yl]urea]	> 1000	> 1000	250 to 500	250 to 500	> 1000		
COCCOc1cc2ncnc(Oc3cccc(NC(=O)Nc4cc(-c5ccccc5)on4)c3)c2cc1OC [Ex 203, 1-(3-(6-methoxy-7-(2-methoxyethoxy)quinazolin-4-yloxy)phenyl)-3-(5-phenylisoxazol-3-yl)urea]	> 1000	> 1000	> 1000	> 1000	> 1000		
COCCOc1cc2ncnc(Oc3cccc(NC(=O)Nc4cc(C(C)(C)C)nn4C)c3)c2cc1OC [Ex 209, 1-(3-tert-butyl-1-methyl-1H-pyrazol-5-yl)-3-(3-(6-methoxy-7-(2-methoxyethoxy)quinazolin-4-yloxy)phenyl)urea]	> 1000	> 1000	250 to 500	500 to 1000	> 1000		
COCCOc1cc2ncnc(Oc3cccc(NC(=O)Nc4cc(C(C)(F)F)no4)c3)c2cc1OC [Ex 211, 1-(3-(1,1-difluoroethyl)isoxazol-5-yl)-3-(3-(6-methoxy-7-(2-methoxyethoxy)quinazolin-4-yloxy)phenyl)urea]	500 to 1000	250 to 500	250 to 500	> 1000	> 1000		
COCCOc1cc2ncnc(Oc3cccc(NC(=O)Nc4cc(C(C)(CF)CF)on4)c3)c2cc1OC [Ex 213, 1-[5-(1,3-difluoro-2-methylpropan-2-yl)isoxazol-3-yl]-3-{3-[6-methoxy-7-(2-methoxyethoxy)quinazolin-4-yloxy]phenyl}urea]	250 to 500			< 250	< 250	< 250	< 250
COCCOc1cc2ncnc(Oc3cccc(NC(=O)Nc4cc(C(C)(C)COC)on4)c3)c2cc1OC [Ex 217, 1-(5-(1-methoxy-2-methylpropan-2-yl)isoxazol-3-yl)-3-(3-(6-methoxy-7-(2-methoxyethoxy)quinazolin-4-yloxy)phenyl)urea]	250 to 500	250 to 500	< 250	250 to 500	> 1000		
COCCOc1cc2ncnc(Oc3cccc(NC(=O)Nc4cc(C(C)(C)F)no4)c3)c2cc1OC [Ex 218, 1-(3-(2-fluoropropan-2-yl)isoxazol-5-yl)-3-(3-(6-methoxy-7-(2-methoxyethoxy)quinazolin-4-yloxy)phenyl)urea]	250 to 500			250 to 500	> 1000	< 250	< 250
COCCOc1cc2ncnc(Oc3cccc(NC(=O)Nc4cc(C(F)(F)F)nn4-c4ccccc4)c3)c2cc1OC [Ex 221, 1-{3-[6-methoxy-7-(2-methoxyethoxy)quinazolin-4-yloxy]phenyl}-3-[1-phenyl-3-(trifluoromethyl)-1H-pyrazol-5-yl]urea]	> 1000	> 1000	250 to 500	250 to 500	500 to 1000		
COCCOc1cc2ncnc(Oc3cccc(NC(=O)Nc4ccc(C(F)(F)F)c(F)c4)c3)c2cc1OC [Ex 222, 1-(3-fluoro-4-(trifluoromethyl)phenyl)-3-(3-(6-methoxy-7-(2-methoxyethoxy)quinazolin-4-yloxy)phenyl)urea]	500 to 1000	250 to 500	250 to 500	> 1000	> 1000		
COCCOc1cc2ncnc(Oc3cccc(NC(=O)Nc4cc(C(F)(F)F)no4)c3)c2cc1OC [Ex 229, 1-(3-(6-methoxy-7-(2-methoxyethoxy)quinazolin-4-yloxy)phenyl)-3-(3-(trifluoromethyl)isoxazol-5-yl)urea]	250 to 500			> 1000	> 1000	< 250	< 250
COCCOc1cc2ncnc(Sc3cccc(NC(=O)Nc4cc(C5CCCC5)on4)c3)c2cc1OC [Ex 235, 1-(5-cyclopentylisoxazol-3-yl)-3-(3-(6-methoxy-7-(2-methoxyethoxy)quinazolin-4-ylthio)phenyl)urea]	250 to 500			250 to 500	> 1000	< 250	< 250
COCCOc1cc2ncnc(Sc3cccc(NC(=O)Nc4cc(C(F)(F)F)nn4-c4ccc(F)cc4)c3)c2cc1OC [Ex 242, 1-[1-(4-fluorophenyl)-3-(trifluoromethyl)-1H-pyrazol-5-yl]-3-{3-[6-methoxy-7-(2-methoxyethoxy)quinazolin-4-ylthio]phenyl}urea]	> 1000	> 1000	> 1000	500 to 1000	> 1000		
COc1cc2c(Sc3cccc(NC(=O)Nc4ccc(OC)c(C(F)(F)F)c4)c3)ncnc2cc1OCCN1CCOCC1 [Ex 249, 1-(4-methoxy-3-(trifluoromethyl)phenyl)-3-(3-(6-methoxy-7-(2-morpholinoethoxy)quinazolin-4-ylthio)phenyl)urea]	500 to 1000	500 to 1000	250 to 500	500 to 1000	> 1000		
COc1cc2ncnc(Oc3cccc(NC(=O)Nc4cc(C(F)(F)F)no4)c3)c2cc1OC [Ex 254, 1-(3-(6,7-dimethoxyquinazolin-4-yloxy)phenyl)-3-(3-(trifluoromethyl)isoxazol-5-yl)urea]	250 to 500			> 1000	> 1000	< 250	< 250
COc1cc2ncnc(Oc3cccc(NC(=O)Nc4cc(C(C)(C)C(F)(F)F)on4)c3)c2cc1OC [Ex 259, 1-(3-(6,7-dimethoxyquinazolin-4-yloxy)phenyl)-3-(5-(1,1,1-trifluoro-2-methylpropan-2-yl)isoxazol-3-yl)urea]	< 250			< 250	< 250	< 250	< 250
COc1cc2ncnc(Sc3cccc(NC(=O)Nc4cc(C(C)(C)C(F)(F)F)on4)c3)c2cc1OC [Ex 261, 1-(3-(6,7-dimethoxyquinazolin-4-ylthio)phenyl)-3-(5-(1,1,1-trifluoro-2-methylpropan-2-yl)isoxazol-3-yl)urea]	250 to 500	< 250	< 250	< 250	> 1000		
COc1cc2ncnc(Oc3cccc(NC(=O)Nc4cc(C(C)(C)C(F)(F)F)on4)c3F)c2cc1OC [Ex 265, 1-(3-(6,7-dimethoxyquinazolin-4-yloxy)-2-fluorophenyl)-3-(5-(1,1,1-trifluoro-2-methylpropan-2-yl)isoxazol-3-yl)urea]	250 to 500			< 250	250 to 500	< 250	< 250
COCCOc1cc2ncnc(Sc3cccc(NC(=O)Nc4cccc(C(C)(C)C#N)c4)c3)c2cc1OC [Ex 281, 1-(3-(2-cyanopropan-2-yl)phenyl)-3-(3-(6-methoxy-7-(2-methoxyethoxy)quinazolin-4-ylthio)phenyl)urea]	< 250	< 250	< 250	250 to 500	> 1000		
COc1cc2ncnc(Oc3ccc(Cl)c(NC(=O)Nc4cc(C(C)(C)C)on4)c3)c2cc1OC [Ex 299, 1-(5-tert-butylisoxazol-3-yl)-3-(2-chloro-5-(6,7-dimethoxyquinazolin-4-yloxy)phenyl)urea]	250 to 500			< 250		< 250	< 250
COc1cc2ncnc(Oc3cccc(NC(=O)Nc4cc(C(C)(C)C)nn4Cc4ccccc4)c3)c2cc1OC [Ex 357, 1-(1-benzyl-3-tert-butyl-1H-pyrazol-5-yl)-3-(3-(6,7-dimethoxyquinazolin-4-yloxy)phenyl)urea]	500 to 1000			250 to 500	> 1000	> 1000	< 250
COc1cc2ncnc(Oc3cccc(NC(=O)Nc4cc(C(C)(C)C)nn4-c4cccc(Cl)c4)c3)c2cc1OC [Ex 363, 1-(3-tert-butyl-1-(3-chlorophenyl)-1H-pyrazol-5-yl)-3-(3-(6,7-dimethoxyquinazolin-4-yloxy)phenyl)urea]	250 to 500			< 250		> 1000	< 250
COc1cc2ncnc(Sc3cccc(NC(=O)Nc4cc(C(C)(C)C)nn4-c4cccc(Cl)c4)c3)c2cc1OC [Ex 364, 1-(3-tert-butyl-1-(3-chlorophenyl)-1H-pyrazol-5-yl)-3-(3-(6,7-dimethoxyquinazolin-4-ylthio)phenyl)urea]	500 to 1000			< 250		> 1000	< 250
COc1cc2ncnc(Oc3cccc(NC(=O)Nc4cc(C(C)(C)C)nn4-c4ccc(C(C)(C)C)cc4)c3)c2cc1OC [Ex 369, 1-(3-tert-butyl-1-(4-tert-butylphenyl)-1H-pyrazol-5-yl)-3-(3-(6,7-dimethoxyquinazolin-4-yloxy)phenyl)urea]	500 to 1000			< 250	> 1000	> 1000	< 250
CCOc1cc2c(Oc3cccc(NC(=O)Nc4cc(C(F)(F)F)nn4-c4ccccc4)c3)ncnc2cc1OC [Ex 391, 1-(3-(6-ethoxy-7-methoxyquinazolin-4-yloxy)phenyl)-3-(1-phenyl-3-(trifluoromethyl)-1H-pyrazol-5-yl)urea]	250 to 500	250 to 500	< 250	< 250	< 250		
